In PMC5578959, “Selective LRRK2 kinase inhibition reduces phosphorylation of endogenous Rab10 and Rab12 in human peripheral mononuclear blood cells” (Scientific Reports, 2017):

How the values were obtained:
Experiment in all cases: KiNativ profiling in human PBMCs
Assay type in all cases: binding
TLK2 = test system: T1, TLK2
T1 construct: purchased ActivX Technologies (KiNativ)
Procedure, shortened: (§1)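 Steps: expose living PBMCs to compound (0.1 µM or 1 µM); perform KiNativ-based kinase profiling.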

AKT1 = test system: T2, AKT1; conditions: ATP Loop
T2 construct: purchased ActivX Technologies (KiNativ)
Procedure, shortened: as §1

RSK1,RSK2,RSK3 domain1 = conditions: Lys2
Procedure, shortened: as §1

PCTAIRE2 = test system: T3, PCTAIRE2; conditions: Lys2
T3 construct: purchased ActivX Technologies (KiNativ)
Procedure, shortened: as §1

MLK3 = test system: T4, MLK3
T4 construct: purchased ActivX Technologies (KiNativ)
Procedure, shortened: as §1

LKB1 = test system: T5, LKB1; conditions: Lys2
T5 construct: purchased ActivX Technologies (KiNativ)
Procedure, shortened: as §1

DGKA = test system: T6, DGKA; conditions: ATP
T6 construct: purchased ActivX Technologies (KiNativ)
Procedure, shortened: as §1

[1] = test system: ZC1/HGK,ZC2/TNIK,ZC3/MINK; conditions: Lys2
Procedure, shortened: as §1

PLK1 = test system: T7, PLK1; conditions: Lys1
T7 construct: purchased ActivX Technologies (KiNativ)
Procedure, shortened: as §1

MST1 = test system: T8, MST1; conditions: Lys1
T8 construct: purchased ActivX Technologies (KiNativ)
Procedure, shortened: as §1

MARK3 = test system: T9, MARK3; conditions: Lys1
T9 construct: purchased ActivX Technologies (KiNativ)
Procedure, shortened: as §1

NEK1 = test system: T10, NEK1; conditions: Lys2
T10 construct: purchased ActivX Technologies (KiNativ)
Procedure, shortened: as §1

PIK3CD = test system: T11, PIK3CD; conditions: ATP
T11 construct: purchased ActivX Technologies (KiNativ)
Procedure, shortened: as §1

FYN,SRC,YES = conditions: Activation Loop
Procedure, shortened: as §1

MAP3K6 = test system: T12, MAP3K6; conditions: Lys2
T12 construct: purchased ActivX Technologies (KiNativ)
Procedure, shortened: as §1

CDK11,CDK8 = conditions: Lys2
Procedure, shortened: as §1

NDR1 = test system: T13, NDR1
T13 construct: purchased ActivX Technologies (KiNativ)
Procedure, shortened: as §1

LOK = test system: T14, LOK
T14 construct: purchased ActivX Technologies (KiNativ)
Procedure, shortened: as §1

PIK3C3 = test system: T15, PIK3C3; conditions: ATP
T15 construct: purchased ActivX Technologies (KiNativ)
Procedure, shortened: as §1

PIK3CB = test system: T16, PIK3CB; conditions: ATP
T16 construct: purchased ActivX Technologies (KiNativ)
Procedure, shortened: as §1

NDR2 = test system: T17, NDR2
T17 construct: purchased ActivX Technologies (KiNativ)
Procedure, shortened: as §1

NEK6,NEK7 = conditions: Lys2
Procedure, shortened: as §1

MAP3K4 = test system: T18, MAP3K4; conditions: Lys2
T18 construct: purchased ActivX Technologies (KiNativ)
Procedure, shortened: as §1

p38d,p38g = conditions: Lys2
Procedure, shortened: as §1

MARK1,MARK2 = conditions: Lys1
Procedure, shortened: as §1

RSK1 domain2 = test system: T19, RSK1 domain2; conditions: Lys2
T19 construct: RSK1 domain2; purchased ActivX Technologies (KiNativ)
Procedure, shortened: as §1

PIP4K2C = test system: T20, PIP4K2C; conditions: ATP
T20 construct: purchased ActivX Technologies (KiNativ)
Procedure, shortened: as §1

RSK2 domain1 = test system: T21, RSK2 domain1
T21 construct: RSK2 domain1; purchased ActivX Technologies (KiNativ)
Procedure, shortened: as §1

p70S6K = test system: T22, p70S6K; conditions: Lys2
T22 construct: purchased ActivX Technologies (KiNativ)
Procedure, shortened: as §1

STLK5 = test system: T23, STLK5
T23 construct: purchased ActivX Technologies (KiNativ)
Procedure, shortened: as §1

MSK1 domain1 = test system: T24, MSK1 domain1; conditions: Lys2
T24 construct: MSK1 domain1; purchased ActivX Technologies (KiNativ)
Procedure, shortened: as §1

CaMK4 = test system: T25, CaMK4
T25 construct: purchased ActivX Technologies (KiNativ)
Procedure, shortened: as §1

NEK8 = test system: T26, NEK8; conditions: Lys2
T26 construct: purchased ActivX Technologies (KiNativ)
Procedure, shortened: as §1

MAP3K15,MAP3K5,MAP3K6 = conditions: Lys1
Procedure, shortened: as §1

PRP4 = test system: T27, PRP4
T27 construct: purchased ActivX Technologies (KiNativ)
Procedure, shortened: as §1

Structure (SMILES): Cn1cc(-c2c[nH]c3ncnc(N4CCOCC4)c23)cc1C#N [PFE-360]
- % Inhibition (TLK2; 0.1µM, Lys1): -8.8%
- % Inhibition (TLK2; 0.1µM, Lys2): -5.5%
- % Inhibition (TLK2; 1µM, Lys1): -9.2%
- % Inhibition (TLK2; 1µM, Lys2): -10.6%
- % Inhibition (AKT1; 0.1µM): -6.3%
- % Inhibition (AKT1; 1µM): -3.2%
- % Inhibition (RSK1,RSK2,RSK3 domain1; 0.1µM): 14.5%
- % Inhibition (RSK1,RSK2,RSK3 domain1; 1µM): 16.3%
- % Inhibition (PCTAIRE2; 0.1µM): -2.4%
- % Inhibition (PCTAIRE2; 1µM): -5.2%
- % Inhibition (MLK3; 0.1µM, Lys1): 5%
- % Inhibition (MLK3; 0.1µM, Lys2): -4.6%
- % Inhibition (MLK3; 1µM, Lys1): -5.6%
- % Inhibition (MLK3; 1µM, Lys2): 10.2%
- % Inhibition (LKB1; 0.1µM): 6.5%
- % Inhibition (LKB1; 1µM): 0.4%
- % Inhibition (DGKA; 0.1µM): 1.4%
- % Inhibition (DGKA; 1µM): -4.5%
- % Inhibition ([1]; 0.1µM): 10.3%
- % Inhibition ([1]; 1µM): -7.3%
- % Inhibition (PLK1; 0.1µM): -4.1%
- % Inhibition (PLK1; 1µM): -6.7%
- % Inhibition (MST1; 0.1µM): 16.8%
- % Inhibition (MST1; 1µM): 34.1%
- % Inhibition (MARK3; 0.1µM): 4.8%
- % Inhibition (MARK3; 1µM): 4.7%
- % Inhibition (NEK1; 0.1µM): 5.9%
- % Inhibition (NEK1; 1µM): 2.6%
- % Inhibition (PIK3CD; 0.1µM, peptide TKVNWLAHNVSKDNRQ): -9.3%
- % Inhibition (PIK3CD; 0.1µM, peptide VNWLAHNVSKDNRQ): 0.5%
- % Inhibition (PIK3CD; 1µM, peptide TKVNWLAHNVSKDNRQ): -11.6%
- % Inhibition (PIK3CD; 1µM, peptide VNWLAHNVSKDNRQ): 1.4%
- % Inhibition (FYN,SRC,YES; 0.1µM): -0.7%
- % Inhibition (FYN,SRC,YES; 1µM): 8.2%
- % Inhibition (MAP3K6; 0.1µM): -5.9%
- % Inhibition (MAP3K6; 1µM): -0.1%
- % Inhibition (CDK11,CDK8; 0.1µM): -9.1%
- % Inhibition (CDK11,CDK8; 1µM): 9.6%
- % Inhibition (NDR1; 0.1µM, Lys1): -16.4%
- % Inhibition (NDR1; 0.1µM, Lys2): 5.8%
- % Inhibition (NDR1; 1µM, Lys1): -6%
- % Inhibition (NDR1; 1µM, Lys2): 1.6%
- % Inhibition (LOK; 0.1µM, ATP Loop): 26.9%
- % Inhibition (LOK; 0.1µM, Lys1): 5.3%
- % Inhibition (LOK; 0.1µM, Lys2): -2.3%
- % Inhibition (LOK; 1µM, ATP Loop): 29.8%
- % Inhibition (LOK; 1µM, Lys1): 39.7%
- % Inhibition (LOK; 1µM, Lys2): 22.4%
- % Inhibition (PIK3C3; 0.1µM, peptide TEDGGKYPVIFKHGDDLR): -2.7%
- % Inhibition (PIK3C3; 0.1µM, peptide TEDGGKYPVIFKHGDDLRQDQLILQIISLMDK): -22.4%
- % Inhibition (PIK3C3; 1µM, peptide TEDGGKYPVIFKHGDDLR): -7.9%
- % Inhibition (PIK3C3; 1µM, peptide TEDGGKYPVIFKHGDDLRQDQLILQIISLMDK): -43.1%
- % Inhibition (PIK3CB; 0.1µM): -27.2%
- % Inhibition (PIK3CB; 1µM): 12.3%
- % Inhibition (NDR2; 0.1µM, Lys1): -18.6%
- % Inhibition (NDR2; 0.1µM, Lys2): 2.7%
- % Inhibition (NDR2; 1µM, Lys1): -5.5%
- % Inhibition (NDR2; 1µM, Lys2): -8.1%
- % Inhibition (NEK6,NEK7; 0.1µM): -2.4%
- % Inhibition (NEK6,NEK7; 1µM): -18.6%
- % Inhibition (MAP3K4; 0.1µM): -0.3%
- % Inhibition (MAP3K4; 1µM): -7.3%
- % Inhibition (p38d,p38g; 0.1µM): 0.8%
- % Inhibition (p38d,p38g; 1µM): -7.7%
- % Inhibition (MARK1,MARK2; 0.1µM): 6.2%
- % Inhibition (MARK1,MARK2; 1µM): 3.2%
- % Inhibition (RSK1 domain2; 0.1µM): -5.4%
- % Inhibition (RSK1 domain2; 1µM): -11.2%
- % Inhibition (PIP4K2C; 0.1µM, peptide TLVIKEVSSEDIADMHSNLSNYHQYIVK): -22.2%
- % Inhibition (PIP4K2C; 0.1µM, peptide VKELPTLKDMDFLNK): -16.7%
- % Inhibition (PIP4K2C; 1µM, peptide TLVIKEVSSEDIADMHSNLSNYHQYIVK): -14.4%
- % Inhibition (PIP4K2C; 1µM, peptide VKELPTLKDMDFLNK): -2.6%
- % Inhibition (RSK2 domain1; 0.1µM, ATP Loop): 13.2%
- % Inhibition (RSK2 domain1; 0.1µM, Activation Loop): 9.2%
- % Inhibition (RSK2 domain1; 0.1µM, Lys2): -0.1%
- % Inhibition (RSK2 domain1; 1µM, ATP Loop): 21.8%
- % Inhibition (RSK2 domain1; 1µM, Activation Loop): 20.3%
- % Inhibition (RSK2 domain1; 1µM, Lys2): 22.9%
- % Inhibition (p70S6K; 0.1µM): -16.9%
- % Inhibition (p70S6K; 1µM): 8.5%
- % Inhibition (STLK5; 0.1µM, Activation Loop): -11%
- % Inhibition (STLK5; 0.1µM, Lys2): 10.9%
- % Inhibition (STLK5; 1µM, Activation Loop): -2.2%
- % Inhibition (STLK5; 1µM, Lys2): -15.8%
- % Inhibition (MSK1 domain1; 0.1µM): -7.8%
- % Inhibition (MSK1 domain1; 1µM): -5.1%
- % Inhibition (CaMK4; 0.1µM, Lys1): -10.2%
- % Inhibition (CaMK4; 0.1µM, Lys2): 15%
- % Inhibition (CaMK4; 1µM, Lys1): -8.5%
- % Inhibition (CaMK4; 1µM, Lys2): 9.5%
- % Inhibition (NEK8; 0.1µM): -1.8%
- % Inhibition (NEK8; 1µM): -12.1%
- % Inhibition (MAP3K15,MAP3K5,MAP3K6; 0.1µM): 26.2%
- % Inhibition (MAP3K15,MAP3K5,MAP3K6; 1µM): 53.5%
- % Inhibition (PRP4; 0.1µM, Lys2): -12.1%
- % Inhibition (PRP4; 0.1µM, Protein Kinase Domain): -9.2%
- % Inhibition (PRP4; 1µM, Lys2): -13.6%
- % Inhibition (PRP4; 1µM, Protein Kinase Domain): -18%
